Consider 5 compounds from patent US11351121B2, “Calcium alginate dosage formulations, and methods of making and using thereof” (Temple University—Of The Commonwealth System of Higher …, priority 2015, dated 2022).

Entries after “also recorded” stand apart in the source; their conditions may differ. Some results are limits rather than exact numbers.

Series [1] can be described thus: Dissolution of formulations A-K: acid stage (0.1 N HCl two hours) then buffer stage. It is filed as physicochemical. The conditions noted are these: for T80: buffer stage pH 7.2 phosphate buffer after 0.1 N HCl two hours; for % released in acid stage: after two hours. On the procedure:
(§1) A dissolution study was performed on each of the different tablets to determine their dissolution profiles. Dissolution USP apparatus II (Paddle) was initially used. […] Rotation speed was 50 RPM and the temperature was 37.0±0.5° C. The dissolution media used was 900 ml of 0.1 N hydrochloric acid in each vessel. After 2 hours the dissolution media was changed to 900 ml of standard 50 mM pH 7.2 potassium phosphate buffer. A 1 ml sample was withdrawn at each time. The samples were analyzed by HPLC.
HPLC analysis: an Agilent 1100 series HPLC with auto-sampler and dual wavelength detector was used. The mobile phase was acetonitrile to water with 0.5% formic acid (60:50 v/v).
Methods: different formulations were developed. […] The ingredients of all the formulations were mixed with deionized water at room temperature. The basket method described in chapter two was used to fabricate the tablets. 2 or 1.5 ml of the gel was dispensed into the basket as indicated.
Release profiles of the tablets were investigated in different buffer capacities and pH values. The tablets were pretreated in the acid stage for two hours before transferring them to the buffer stage.

Series [2] can be described thus: Drug loss during the cross-linking process. It is filed as physicochemical. To be noted: previous formulations (with glycerol, lactose, sucrose).
Series [3] is described as follows: Dissolution of compressed caffeine tablets (Carver press, Minipress IIBD). The format is physicochemical. The conditions noted are these: compressed tablet with alginate film coating. On the procedure:
Coated Tablet Results: different weight gains were tested to try to achieve the delayed release profile.
Because it was somewhat more difficult to produce tablets with similar hardness on the Minipress using the formulation used on the Carver press, lactose was added to increase the hardness of the tablets.

The conditions of series [4]: cited from earlier work.
The nature of series [5]: Dissolution study of calcium alginate tablets, USP apparatus I (basket), 0.1 N HCl 2 hours then pH 7.2 phosphate buffer. The format is physicochemical. The conditions noted are these: after two hours. On the procedure: Analysis: an Agilent 1100 series HPLC with autosampler and dual wavelength detector was used. The mobile phase was acetonitrile to water with 0.5% formic acid (60:50 v/v). The flow rate was 1.2 mL/min and the sample injection volume was 50 μL and the wavelength of detection was 214 nm. The column used was a 150 by 4.6 mm Eclipse Plus C18 column (Agilent).
as §1

Series [6] in a line: Dissolution of calcium alginate tablets in different dissolution media (deionized water, EDTA, EDTA+CaCl2). The format is physicochemical. On the procedure: In order to investigate the role of solutes and pH of the media on the erosion process, calcium alginate tablets made with same formulation were treated in different dissolution media.
The dissolution of the drug from the Ca Alginate dosage form was dependent on two things. First the pH of the media had to be neutral or high. Second the media had to have the ability to complex with the Calcium in solution. […] The drug release at pH 7.2 in media with either EDTA or phosphate buffer was complete in 6 hours. Drug release in 0.1 N HCl was less than 5%.

The conditions of series [7]: poly(ethyloxaline)/PMAA matrix disks, 0.9% saline; cited from earlier work.

On to `O=C(O)c1ccccc1` [Benzoic acid, benzoic acid], for which the “drug load released during residence time in the acid stage” value in series [1] (benzoic acid, previous formulations (with glycerol, lactose, sucrose)) is reported as “more than 30%”. The T80 in series [1] (formulation B) turned out to be 6.76 h. Besides, in series [1] (formulation C), the “released in the acid stage after two hours” value was “about 18%” and the T80 came to 6.4 h. For the same compound, the “% released in acid stage” value in series [1] (formulation K) is 7%. Further, in series [1] (formulation K, buffer stage), the “erosion of tablets at pH 3 and pH 4” value is given as “no erosion was detected”; the “erosion of tablets at pH 5” value is recorded as “started to erode but at a slower rate compared to pH 7.2”. For the same compound, in series [1] (formulation K, 100 mM phosphate buffer, pH 7.2), the “effect of higher buffer capacity on release rate” value is on record as “minimum effect on the release rate”. Besides, the “effect of lower buffer capacity on drug release” value in series [1] (formulation K, 25 and 10 mM phosphate buffer, pH 7.2) is given as “a slower drug release”. Moreover, the “benzoic acid lost during the cross-linking process” value in series [2] is reported as “more than 30%”.
For `Cn1c(=O)c2c(ncn2C)n(C)c1=O` [Caffeine, caffeine], the “% released in acid stage” value in series [1] (formulation K) is listed as 18%. In addition, in series [3], the “caffeine release by 12 hours” value is recorded as 80% and the “time for which caffeine is retained” value was “up to 8 hours”.
On to `COc1ccccc1OCC(O)CO` (stereo not drawn) [Guaifenesin, guaifenesin], for which, in series [1] (formulation K), the “% released in acid stage” value turned out to be 17%. Further, the solubility entry in series [4] is given as “highly soluble”.
For the compound `CC(C)Cc1ccc(C(C)C(=O)O)cc1` (stereo not drawn) [Ibuprofen, ibuprofen], the “drug released in 0.1 N HCl media” value in series [5] is recorded as “less than 5%”. Also, the T80 was 4.8 h in series [1] (formulation B) and 6.71 h in series [1] (formulation C). Further, in series [1] (formulation K), the “% released in acid stage” value is listed as <1%. In addition, the “release of the drug in pH 7.2 deionized water” value in series [6] (calcium alginate tablets, pH 7.2 deionized water) is recorded as “no significant release; also recorded: no drug release”. Further, the “time to complete drug release” value in series [6] (pH 7.2 media with either EDTA or phosphate buffer) came out at 6 h. In series [6] (tablets with 1 g stearic acid, 1 molar CaCl2 3 minutes, 10 mM EDTA), the “drug release in 10 mM EDTA dissolution medium” value is listed as “Complete drug release”. Further, the “erosion or release in EDTA solution treated with calcium chloride” value in series [6] (tablets with 1 g stearic acid, 1 molar CaCl2 3 minutes, 10 mM EDTA+30 mM CaCl2) is reported as “No erosion or release”.
Consider “insulin: regular zinc insulin in a poly(ethyloxaline)/PMAA matrix (Kwon et al.)”, for which, in series [7], the “insulin released during the 3 days equilibrium period in saline” value is listed as “less than 4 % of the initial insulin load”.
